Results from US20090047379A1, “Benzamide Compounds Useful as High Potency Sweet Taste Enhancers” (priority 2007, published 2009).
Where a SMILES comes first, the peptide text is derived from it.

What was measured:
Type in all cases: in vivo, human
sweet taste [1] = experiment: Comparisons of taste quality and intensity, solutions in water (Example 12, Table I); conditions: for Other taste attributes: in vivo
Text: Sweetness is rapid and fades quickly on rinsing of the mouth.

sweet taste [2] = experiment: Structure activity example, tasting of analogues (Example 11); conditions: when tasted
Text: During our invention process, we observed repeatedly that a small structural difference can cause dramatic change in the taste. For example, compound N-(2-methylcyclohexyl)-2,3,4,5,6-pentafluoro-benzamide is very sweet; moving the methyl group to the 4-position render the resulting N-(4-methylcyclohexyl)-2,3,4,5,6-pentafluoro-benzamide bitter; moving the methyl group to nitrogen render the resulting N-cyclohexyl-2,3,4,5,6-pentafluoro-N-methyl-benzamide tasteless.
There is however an underlying theme, that being that an amide functionality is important.

sweet taste [3] = experiment: Comparison of sweetness at 5 ppm in plain water (Example 13)
Method: Two molecules were compared to each other based on sweetness. Both molecules were evaluated at 5 ppm in plain water.

sweet taste [4] = experiment: Sweetness in muffins, trained technical panel (second Example 14); conditions: 10 ppm in muffin; for sweetness intensity rating: scale 0-9, 9 most sweetness
Method: The sweeteners 2,3,5,6-tetrafluoro-4-methyl-N-(2-methylcyclohexyl)benzamide (sweetener A) and N-(2-methylcyclohexyl)-2,3,4,5,6 pentafluoro-benzamide -(sweetener B) were both evaluated in muffins. They were evaluated along with a blank muffin sample. Both sweeteners were evaluated at 10 ppm in the muffin. The samples were evaluated by a trained technical panel. They were asked to evaluate the profile and to give a rating between 0-9 on the sweetness intensity. The rating scale ranged from zero for no sweetness to 9 for the most sweetness. […] The samples were rating on sweet intensity (see Table 3). The samples ratings were as follows; sample A rated 5, sample B rated 6, sample C rated 8.

sweet taste [5] = experiment: Sweetener blends with Ace-K or Sucralose, trained technical panel (Example 16); conditions: for overall group rating: scale 1-9, 9 the best; for blend rating: scale 1 to 9
Method: A comparison of the synergistic effects the Benzamide, 2,3,4,5,6-Pentafluoro-N-(2-methylcyclohexyl)—(sweetener A) in combination with acesulfame-k, herein referred to as Ace-K and Sucralose was compared with the effects of Benzamide, 2,3,5,6-tetrafluoro-4-methyl-N-(2-methylcyclohexyl)—(sweetener B) in combination with the same commercial sweeteners. The samples were evaluated by a trained technical panel. The first sample was Ace-K at 100 ppm.
A similar evaluation with done with Sucralose as the commercial sweetener. An evaluation of Sucralose at 60 ppm was done in plain water. […] A comparison of the synergistic effects of sweetener A at 3 ppm in combination with Sucralose at 60 ppm was evaluated against sweetener B in the same combination. […] The blends were evaluated on a scale for 1 to 9.

sweet taste [6] = experiment: Sweetness enhancement of an 8 brix beverage, trained technical panel (Example 14); conditions: 4 ppm in 8 brix beverage; for sweet intensity rating: ten point scale, nine most sweetness, zero no sweetness
Method: An 8 brix, the measurement of the mass ratio of dissolved sugar in a liquid, beverage was prepared to evaluate two sweeteners, 2,3,5,6-tetrafluoro-4-methyl-N-(2-methylcyclohexyl)benzamide-(sweetener A) and N-(2-methylcyclohexyl)-2,3,4,5,6 pentafluoro-benzamide)—(sweetener B). The objective was to determine if the sweeteners enhanced an 8 brix beverage to make it taste more similar to a 10 brix beverage. There were four samples evaluated an 8 brix beverage blank, sweetener A in 8 brix beverage, sweetener B in 8 brix beverage and a 10 brix beverage blank. Both the sweeteners were evaluated at 4 ppm. The beverage samples were evaluated by a trained technical panel. The panel evaluated the sweetness profile and the sweet intensity. The intensity was rated on a ten point scale with nine being the most sweetness and zero having no sweetness. […] The sweet intensity ratings were as follows (see Table 2) sample A rated 6, sample B rated 7, sample C rated 9 and sample D rated 9.

sweet taste [7] = experiment: Cola beverage containing Aspartame, trained technical panel (Example 15); conditions: for sweetness profile rating: scale 0-9, 9 the best
Method: The sweeteners Benzamide, 2,3,5,6-[…]-4-methyl-N-(2-methylcyclohexyl)—(sweetener A) and Benzamide, 2,3,4,5,6-pentafluoro-N-(2-methylcyclohexyl)—(sweetener B) were both evaluated in a cola beverage that contained Aspartame. The purpose of this experiment was to evaluate the sweeteners profile in a sweetener blend. There were three separate samples evaluated, see Table 3. The samples were evaluated by a trained technical panel. The sweetness profile was rated on a scale from 0-9, with 0 being the worst and 9 the best. The first sample, Sample A, containing only aspartame at 300 ppm was rated a 4. […] The second sample, Sample B, contained Aspartame at 300 ppm and sweetener A at 3 ppm. […] The rating for sample B was a 9 for sweetness. The third sample, sample C, contained Aspartame at 300 ppm and sweetener B at 3 ppm.

[8] = 3 ppm in combination with Ace-K at 100 ppm
[9] = 3 ppm in combination with Sucralose at 60 ppm
[10] = 3 ppm with Aspartame 300 ppm in cola beverage
[11] = Aspartame 300 ppm only in cola beverage

Compound: O=C(N[C@H]1CCCc2ccccc21)c1ccoc1 (single isomer, unassigned) [1S isomer, reference compound]
- Other taste attributes (sweet taste [1]): 1S isomer is tasteless

Compound: CC1CCCCC1OC(=O)c1c(F)c(F)c(F)c(F)c1F (stereo not shown) [2,3,4,5,6-pentafluorobenzoic acid 2-methylcyclohexyl ester]
- taste (sweet taste [2]): burning sensation

Compound: Cc1c(F)c(F)c(C(=O)NC(C)C(C)C)c(F)c1F (stereo not shown) [2,3,5,6-tetrafluoro-4-methyl-N-(1,2-Dimethyl-propyl)benzamide, reference compound]
- Other taste attributes (sweet taste [1]): Clean

Compound: Cc1c(F)c(F)c(C(=O)NC2CCCCC2C)c(F)c1F (stereo not shown) [2,3,5,6-tetrafluoro-4-methyl-N-(2-methylcyclohexyl)benzamide]
- taste description (sweet taste [3]): mild vegetative, green and very bitter with some sugary notes
- profile description (sweet taste [4]): slightly sweet, not much difference in profile to the blank muffin sample
- sweetness intensity rating (sweet taste [4]): 6
- taste comments (sweet taste [5]; [8]): delayed sweetness, astringency, not as strong a sweetness as the combination with sweetener A
- overall group rating (sweet taste [5]; [8]): 7
- taste comments (sweet taste [5]; [9]): not as sweet as the combination with sweetener A, delayed sweetness
- blend rating (sweet taste [5]; [9]): 7
- sweetness profile comments (sweet taste [6]): sour and slightly sweeter than the 8 brix blank
- sweet intensity rating (sweet taste [6]): 7
- sweetness comments (sweet taste [7]; [10]): sweetness was well rounded, lingered, and gave mouthfeel
- sweetness profile rating (sweet taste [7]; [10]): 9

Compound: CC1=CC(=O)[N-]S(=O)(=O)O1.[K+] [Ace-K, acesulfame-k]
- taste comments (sweet taste [5]; Ace-K at 100 ppm alone): delayed sweetness, some off notes, astringent and bitter

Compound: COC(=O)[C@H](Cc1ccccc1)NC(=O)[C@@H](N)CC(=O)O [Aspartame] (H-Asp-Phe-OMe)
- sweetness comments (sweet taste [7]; [11]): sweetness in the beverage spiked and then disappeared
- sweetness profile rating (sweet taste [7]; [11]): 4

Compound: Cc1c(F)c(F)c(C(=O)N[C@H](C)C2CCCCC2)c(F)c1F [Compound 40, (R)-N-1-cyclohexylethyl-2,3,5,6-tetrafluoro-4-methyl-benzamide]
- Other taste attributes (sweet taste [1]): Bitter at 20 ppm
- Profile (sweet taste [1]; sweetness onset and duration relative to sucrose): Poor sweet taste profile

Compound: CC(C)C(C)NC(=O)c1c(F)c(F)c(F)c(F)c1F (stereo not shown) [Compound 53, N-(1,2-dimethylpropyl)-2,3,4,5,6-pentafluoro-benzamide]
- Other taste attributes (sweet taste [1]): Clean

Compound: Cc1cc(C)c(C(=O)NC(C)C(C)(C)C)c(C)c1 (stereo not shown) [Example 2, 2,4,6-trimethyl-N-(1,2,2-trimethylpropyl)-benzamide]
- Other taste attributes (sweet taste [1]): Clean

Compound: CC1CCCCC1NC(=O)c1c(F)c(F)c(F)c(F)c1F (stereo not shown) [Example 6, N-(2-methylcyclohexyl)-2,3,4,5,6-pentafluoro-benzamide]
- taste description (sweet taste [3]): mouth coating, intense sweet, no bitter notes, and had a fast sweetness onset
- profile description (sweet taste [4]): sweeter, long lasting sweetness and mouthwatering
- sweetness intensity rating (sweet taste [4]): 8
- equal in sweetness to sucrose (sweet taste [1]; 1 ppm in water): 1-2 % sucrose
- taste description (sweet taste [1]; 1 ppm in water): sweetness is not immediate but builds after a few seconds but is very clean, lacking bitterness, off-taste or negative attribute
- rated as sweet as sucrose (sweet taste [1]; 4% sucrose plus 1 ppm in water): 8 % sucrose
- taste description (sweet taste [1]; 4% sucrose plus 1 ppm in water): longer lasting and considered to be quite acceptable sweet character lacking bitterness
- taste description (sweet taste [1]; 4% sucrose plus 5 ppm in water): too sweet and too long lasting
- equal in strength to sucrose (sweet taste [1]; 5 ppm in water): 4-6 % sucrose
- sweet character lasts longer than sucrose (sweet taste [1]; 5 ppm in water): up to 10 times longer
- taste description (sweet taste [1]; 5 ppm in water): sweetness is not immediate but is very clean, lacking bitterness, off-taste or negative attribute
- Other taste attributes (sweet taste [1]): Clean
- effect in combination with sucrose (sweet taste [1]; low concentrations <4 ppm): synergistic effect with sucrose
- taste comments (sweet taste [5]; [8]): strong sweetness upfront, bitter, enhanced bitterness in combination
- overall group rating (sweet taste [5]; [8]): 9
- taste comments (sweet taste [5]; [9]): enhanced sweetness, more rounded, no bitter, very strong sweet profile
- blend rating (sweet taste [5]; [9]): 9
- sweetness profile comments (sweet taste [6]): sweeter, more mouthwatering, had a slight astringent aftertaste and had a similar sweetness profile to the 10 brix beverage
- sweet intensity rating (sweet taste [6]): 9
- taste (sweet taste [2]): very sweet
- sweetness comments (sweet taste [7]; [10]): sweetness had more impact than Sample A, but not as intense as Sample B
- sweetness profile rating (sweet taste [7]; [10]): 6

Compound: CC1CCC(NC(=O)c2c(F)c(F)c(F)c(F)c2F)CC1 (stereo not shown) [N-(4-methylcyclohexyl)-2,3,4,5,6-pentafluoro-benzamide]
- taste (sweet taste [2]): bitter

Compound: O=C(N[C@@H]1CCCc2ccccc21)c1ccoc1 [N-[(1R)-1,2,3,4-tetrahydro-1-naphthalenyl]-3-furancarboxamide, reference compound]
- Other taste attributes (sweet taste [1]): Clean

Compound: CN(C(=O)c1c(F)c(F)c(F)c(F)c1F)C1CCCCC1 [N-cyclohexyl-2,3,4,5,6-pentafluoro-N-methyl-benzamide]
- taste (sweet taste [2]): tasteless

Compound: OC[C@H]1O[C@H](O[C@]2(CCl)O[C@H](CCl)[C@@H](O)[C@@H]2O)[C@H](O)[C@@H](O)[C@H]1Cl [Sucralose]
- taste comments (sweet taste [5]; Sucralose at 60 ppm alone in plain water): sweet onset, mouthwatering, sweetness lingers

Compound: OC[C@H]1O[C@@](CO)(O[C@H]2O[C@H](CO)[C@@H](O)[C@H](O)[C@H]2O)[C@@H](O)[C@@H]1O [Sucrose, reference compound]
- taste description (sweet taste [1]; 4% sucrose in water): moderate sweetness and mouthfeel
- taste description (sweet taste [1]; 8% sucrose in water): good level sweetness and excellent mouthfeel
